Experimental data published in patent US11958864B2, “Tetracyclic heterocycle compounds useful as HIV integrase inhibitors” (Merck Sharp & Dohme LLC, priority 2021, dated 2024).

Assay: Dog pharmacokinetic studies: oral dosing of Compound A or prodrug, plasma Compound A by LC-MS/MS
Assay type: in vivo, Male Beagle Dogs
Settings: fasted Beagle dogs, comparison with dosing of Compound A
Description: Male Beagle Dogs (Marshall Farms) were used for the pharmacokinetic studies. Studies were conducted under a protocol approved by the WP-IACUC (Animal Procedure Statement #2018-600787-MAR). Following overnight-fasting, dogs were dosed orally with either Compound A at 10 mg/kg and 25 mg/kg or one of the respective prodrugs at the dose equivalent to 10 mg/kg and 25 mg/kg of Compound A formulated as a suspension in either 0.5% methylcellulose with 0.25% sodium lauryl sulfate or 10% Tween 80-5 mM HCl. Food was returned at 4 hours after dosing. Blood (0.5-mL) was drawn at pre-dose, 0.25, 0.5, 1, 2, 4, 6, 24, 48, 72, 96, and 168 hours post-dosing into EDTA-coated collection tubes containing 25 μL of 2 mM dichlorvos solution in water. The tubes were kept chilled prior to blood collection and throughout plasma separation. The plasma was separated by centrifugation (2 minutes at 10000 g). Plasma samples were immediately frozen and kept at −70° C. until analysis by LC-MS/MS.

| SMILES | absorption versus their metabolite, Compound A |
| --- | --- |
| COCCOC(=O)OCOc1c2n3c(c(C(=O)NCc4cccc(Cl)c4F)c1=O)CC[C@@H]3[C@@H]1OCCCN1C2=O [Compound 1, (((11aS,11bR)-3-((3-chloro-2-fluorobenzyl)carbamoyl)-4,6-dioxo-1,2,4,6,9,10,11a,11b-octahydro-8H-[1,3]oxazino[2′,3′:3,4]pyrazino[2,1,6-cd]indolizin-5-yl)oxy)methyl (2-methoxyethyl) carbonate] | increase in absorption |
| COC(=O)OCOc1c2n3c(c(C(=O)NCc4cccc(Cl)c4F)c1=O)CC[C@@H]3[C@@H]1OCCCN1C2=O [Compound 6, (((11aS,11bR)-3-((3-chloro-2-fluorobenzyl)carbamoyl)-4,6-dioxo-1,2,4,6,9,10,11a,11b-octahydro-8H-[1,3]oxazino[2′,3′:3,4]pyrazino[2,1,6-cd]indolizin-5-yl)oxy)methyl methyl carbonate] | increase in absorption |
